Test results taken from ChEMBL document CHEMBL1629634, “Postantibiotic effect of tigecycline against 14 gram-positive organisms” (Antimicrob Agents Chemother, 2009).
Values after ≈ are worked out from the molar mass of the structure shown.

Experiments:
Format in all cases: functional
Enterococcus faecalis [1] = assay: Antibacterial activity against Enterococcus faecalis assessed as post antibiotic effect
Escherichia coli [2] = assay: Antibacterial activity against Escherichia coli assessed as post antibiotic effect at 10 times MIC concentration incubated for 1 hr measured after 1:1000 dilution by viable plate count method
Streptococcus pneumoniae [3] = assay: Antibacterial activity against penicillin-resistant Streptococcus pneumoniae assessed as post antibiotic effect at 10 times MIC concentration incubated for 1 hr measured after 1:1000 dilution by viable plate count method
Haemophilus influenzae [4] = assay: Antibacterial activity against amoxicillin, clavulanate-resistant Haemophilus influenzae expressing beta-lactamase assessed as post antibiotic effect at 10 times MIC concentration incubated for 1 hr measured after 1:1000 dilution by viable plate count method
Enterobacter cloacae [5] = assay: Antibacterial activity against Enterobacter cloacae assessed as post antibiotic effect at 10 times MIC concentration incubated for 1 hr measured after 1:1000 dilution by viable plate count method
Acinetobacter baumannii [6] = assay: (§1) Antibacterial activity against Acinetobacter baumannii assessed as post-antibiotic sub-MIC effect at 0.2 times MIC concentration pretreated with 10 times MIC concentration for 1 hr followed by 1:1000 dilution by viable plate count method
Escherichia coli [7] = assay: Antibacterial activity against Escherichia coli assessed as post-antibiotic sub-MIC effect at 0.2 times MIC concentration pretreated with 10 times MIC concentration for 1 hr followed by 1:1000 dilution by viable plate count method
Streptococcus pneumoniae [8] = assay: Antibacterial activity against penicillin-susceptible Streptococcus pneumoniae assessed as post-antibiotic sub-MIC effect at 0.2 times MIC concentration pretreated with 10 times MIC concentration for 1 hr followed by 1:1000 dilution by viable plate count method
Acinetobacter baumannii [9] = assay: as §1, with “against multidrug-resistant” for “against”, “baumannii producing OXA-24 and OXA-51 beta-lactamases” for “baumannii”, “0.3” for “0.2”
Staphylococcus aureus [10] = assay: Antibacterial activity against vancomycin-sensitive methicillin-resistant Staphylococcus aureus assessed as post-antibiotic sub-MIC effect at 0.3 times MIC concentration pretreated with 10 times MIC concentration for 1 hr followed by 1:1000 dilution by viable plate count method
Haemophilus influenzae [11] = assay: Antibacterial activity against amoxicillin, clavulanate-resistant Haemophilus influenzae expressing beta-lactamase assessed as sub-MIC effect at 0.2 times MIC concentration incubated for 1 hr by viable plate count method
Enterococcus faecalis [12] = assay: Antibacterial activity against vancomycin-resistant Enterococcus faecalis assessed as sub-MIC effect at 0.3 times MIC concentration incubated for 1 hr by viable plate count method
Enterobacter cloacae [13] = assay: Antibacterial activity against Enterobacter cloacae assessed as post antibiotic effect
Streptococcus pneumoniae [14] = assay: Antibacterial activity against penicillin-susceptible Streptococcus pneumoniae assessed as sub-MIC effect at 0.4 times MIC concentration incubated for 1 hr by viable plate count method
Streptococcus pneumoniae [15] = assay: Antibacterial activity against penicillin-resistant Streptococcus pneumoniae assessed as post-antibiotic sub-MIC effect at 0.4 times MIC concentration pretreated with 10 times MIC concentration for 1 hr followed by 1:1000 dilution by viable plate count method
Haemophilus influenzae [16] = assay: Antibacterial activity against beta-lactamase deficient and ampicillin-resistant Haemophilus influenzae assessed as sub-MIC effect at 0.4 times MIC concentration incubated for 1 hr by viable plate count method
Klebsiella pneumoniae = assay: Antibacterial activity against Klebsiella pneumoniae assessed as post antibiotic effect at 10 times MIC concentration incubated for 1 hr measured after 1:1000 dilution by viable plate count method
Enterobacter cloacae [17] = assay: Antibacterial activity against Enterobacter cloacae assessed as sub-MIC effect at 0.2 times MIC concentration incubated for 1 hr by viable plate count method
Streptococcus pneumoniae [18] = assay: Antibacterial activity against penicillin-susceptible Streptococcus pneumoniae by macrodilution method
Escherichia coli [19] = assay: Antibacterial activity against Escherichia coli assessed as post-antibiotic sub-MIC effect at 0.4 times MIC concentration pretreated with 10 times MIC concentration for 1 hr followed by 1:1000 dilution by viable plate count method
Enterococcus faecalis [20] = assay: Antibacterial activity against vancomycin-sensitive Enterococcus faecalis assessed as post-antibiotic sub-MIC effect at 0.3 times MIC concentration pretreated with 10 times MIC concentration for 1 hr followed by 1:1000 dilution by viable plate count method
Staphylococcus aureus [21] = assay: Antibacterial activity against vancomycin-intermediate methicillin-resistant Staphylococcus aureus assessed as post-antibiotic sub-MIC effect at 0.2 times MIC concentration pretreated with 10 times MIC concentration for 1 hr followed by 1:1000 dilution by viable plate count method
Acinetobacter baumannii [22] = assay: Antibacterial activity against Acinetobacter baumannii assessed as post antibiotic effect at 10 times MIC concentration incubated for 1 hr measured after 1:1000 dilution by viable plate count method
Staphylococcus aureus [23] = assay: Antibacterial activity against vancomycin-sensitive methicillin-resistant Staphylococcus aureus assessed as post-antibiotic sub-MIC effect at 0.2 times MIC concentration pretreated with 6 times MIC concentration for 1 hr followed by 1:1000 dilution by viable plate count method
Acinetobacter baumannii [24] = assay: Antibacterial activity against Acinetobacter baumannii assessed as post-antibiotic sub-MIC effect at 0.4 times MIC concentration pretreated with 10 times MIC concentration for 1 hr followed by 1:1000 dilution by viable plate count method
Enterococcus faecalis [25] = assay: Antibacterial activity against vancomycin-sensitive Enterococcus faecalis assessed as sub-MIC effect at 0.2 times MIC concentration incubated for 1 hr by viable plate count method
Haemophilus influenzae [26] = assay: Antibacterial activity against amoxicillin, clavulanate-resistant Haemophilus influenzae expressing beta-lactamase by macrodilution method
Enterococcus faecalis [27] = assay: Antibacterial activity against vancomycin-sensitive Enterococcus faecalis assessed as sub-MIC effect at 0.3 times MIC concentration incubated for 1 hr by viable plate count method
Staphylococcus aureus [28] = assay: Antibacterial activity against vancomycin-intermediate methicillin-resistant Staphylococcus aureus assessed as post-antibiotic sub-MIC effect at 0.3 times MIC concentration pretreated with 6 times MIC concentration for 1 hr followed by 1:1000 dilution by viable plate count method
Haemophilus influenzae [29] = assay: Antibacterial activity against beta-lactamase deficient and ampicillin-resistant Haemophilus influenzae by macrodilution method
Enterobacter cloacae [30] = assay: Antibacterial activity against Enterobacter cloacae assessed as sub-MIC effect at 0.3 times MIC concentration incubated for 1 hr by viable plate count method
Streptococcus pneumoniae [31] = assay: Antibacterial activity against penicillin-resistant Streptococcus pneumoniae assessed as post-antibiotic sub-MIC effect at 0.3 times MIC concentration pretreated with 10 times MIC concentration for 1 hr followed by 1:1000 dilution by viable plate count method
Acinetobacter baumannii [32] = assay: Antibacterial activity against multidrug-resistant Acinetobacter baumannii producing OXA-24 and OXA-51 beta-lactamases assessed as sub-MIC effect at 0.3 times MIC concentration incubated for 1 hr by viable plate count method
Enterobacter cloacae [33] = assay: Antibacterial activity against Enterobacter cloacae assessed as post-antibiotic sub-MIC effect at 0.4 times MIC concentration pretreated with 2 times MIC concentration for 1 hr followed by 1:1000 dilution by viable plate count method
Acinetobacter baumannii [34] = assay: Antibacterial activity against Acinetobacter baumannii assessed as post-antibiotic sub-MIC effect at 0.3 times MIC concentration pretreated with 6 times MIC concentration for 1 hr followed by 1:1000 dilution by viable plate count method

## CN(C)c1cc(NC(=O)CNC(C)(C)C)c(O)c2c1C[C@H]1C[C@H]3[C@H](N(C)C)C(O)=C(C(N)=O)C(=O)[C@@]3(O)C(O)=C1C2=O [TIGECYCLINE]
Enterococcus faecalis [1]
  PAE: 1 h
Escherichia coli [2]
  PAE: 2 h
Streptococcus pneumoniae [3]
  PAE: 4.8 h
Haemophilus influenzae [4]
  PAE: 3.7 h
Enterobacter cloacae [5]
  PAE: 1.2 h
Acinetobacter baumannii [6]
  PAE: 6.7 h
Escherichia coli [7]
  PAE: 2.4 h
Streptococcus pneumoniae [8]
  PAE: 5.9 h
Acinetobacter baumannii [9]
  PAE: 2.2 h
Staphylococcus aureus [10]
  PAE: 5.2 h
Haemophilus influenzae [11]
  PAE: 0 h
Enterococcus faecalis [12]
  PAE: 0.3 h
Enterobacter cloacae [13]
  PAE: 2 h
Streptococcus pneumoniae [14]
  PAE: 0.8 h
Streptococcus pneumoniae [15]
  PAE: 10.2 h
Haemophilus influenzae [16]
  PAE: 0.8 h
Klebsiella pneumoniae
  PAE: 1.7 h
Enterobacter cloacae [17]
  PAE: 0.2 h
Streptococcus pneumoniae [18]
  MIC: 0.03 µg/mL (≈ 0.0512 µM)
Escherichia coli [19]
  PAE: 3.5 h
Enterococcus faecalis [20]
  PAE: 6.8 h
Staphylococcus aureus [21]
  PAE: 6.6 h
Acinetobacter baumannii [22]
  PAE: 2.9 h
Staphylococcus aureus [23]
  PAE: 3.7 h
Acinetobacter baumannii [24]
  PAE: 11.2 h
Enterococcus faecalis [25]
  PAE: 0 h
Haemophilus influenzae [26]
  MIC: 0.12 µg/mL
Enterococcus faecalis [27]
  PAE: 0.2 h
Staphylococcus aureus [28]
  PAE: 9.8 h
Haemophilus influenzae [29]
  MIC: 0.06 µg/mL (≈ 0.102 µM)
Enterobacter cloacae [30]
  PAE: 0.4 h
Streptococcus pneumoniae [31]
  PAE: 10.2 h
Acinetobacter baumannii [32]
  PAE: 0.7 h
Enterobacter cloacae [33]
  PAE: 6.9 h
Acinetobacter baumannii [34]
  PAE: 10.7 h
